Assay [1] concerns the target isolated recombinant JAK2 kinase domain (Homo sapiens (Human), UniProt O60674). In words: JAK2 enzyme assay (Caliper LabChip, Ki). As to conditions: isolated recombinant JAK2 kinase domain, 0.2 nM enzyme, ATP 25 μM. The class given is biochemical.
The target of assay [2] is isolated recombinant JAK1 kinase domain (Homo sapiens (Human), UniProt P23458). In words: JAK1 enzyme assay (Caliper LabChip, Ki). The class given is biochemical. Conditions: isolated recombinant JAK1 kinase domain, 1.5 nM enzyme, ATP 25 μM.
Chain of isolated recombinant JAK1 kinase domain (P23458 875-1153): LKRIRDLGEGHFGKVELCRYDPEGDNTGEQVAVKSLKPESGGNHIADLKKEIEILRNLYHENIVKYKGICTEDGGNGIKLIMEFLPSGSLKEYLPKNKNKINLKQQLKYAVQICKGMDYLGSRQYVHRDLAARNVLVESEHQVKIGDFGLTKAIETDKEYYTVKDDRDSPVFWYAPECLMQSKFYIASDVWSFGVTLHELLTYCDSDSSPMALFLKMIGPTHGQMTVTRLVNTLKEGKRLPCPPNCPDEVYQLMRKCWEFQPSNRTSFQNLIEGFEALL

Chain of isolated recombinant JAK2 kinase domain (O60674 849-1124): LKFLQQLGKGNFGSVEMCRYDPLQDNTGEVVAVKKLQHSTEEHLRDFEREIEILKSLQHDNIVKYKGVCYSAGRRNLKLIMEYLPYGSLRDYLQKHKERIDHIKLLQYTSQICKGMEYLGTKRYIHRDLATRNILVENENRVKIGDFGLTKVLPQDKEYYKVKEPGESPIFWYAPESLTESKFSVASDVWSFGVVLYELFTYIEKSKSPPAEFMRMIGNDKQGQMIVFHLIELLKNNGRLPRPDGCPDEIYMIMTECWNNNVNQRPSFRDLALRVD

As for `CN(CC1(C#N)CC1)C1CCN(C(=O)Cn2cc(Nc3nc4c(N5CC6CCC(C5)N6C(=O)C5CC(C(F)(F)F)C5)cccn4n3)cn2)CC1` (stereo not shown) [Example 192, 1-[[methyl-[1-[2-[4-[[8-[8-[3-(trifluoromethyl)cyclo-butanecarbonyl]-3,8-diazabicyclo[3.2.1]octan-3-yl]-[1,2,4]triazolo[1,5-a]alpyridin-2-yl]amino]pyrazol-1-yl]acetyl]-4-piperidyl]amino]methyl]-cyclopropanecarbonitrile], the Ki (in general, a measure of affinity in units of concentration, obtained from inhibition or displacement) in assay [1] is 1.1 nM; in assay [2], 0.9 nM.

On to `CN(CC1(C#N)CC1)C1CCN(C(=O)Cn2cc(Nc3nc4c(N5CC6CCC(C5)N6C(=O)C5CC(C(F)(F)F)C5)cccn4n3)cn2)CC1` (stereo not shown) [Example 193, 1-[[methyl-[1-[2-[4-[[8-[8-[3-(trifluoromethyl)cyclobutanecarbonyl]-3,8-diazabicyclo[3.2.1]octan-3-yl]-[1,2,4]triazolo[1,5-a]pyridin-2-yl]amino]pyrazol-1-yl]acetyl]-4-piperidyl]amino]methyl]-cyclopropanecarbonitrile], for which the inhibition constant (Ki) in assay [1] came to 0.7 nM; in assay [2], 0.6 nM.

With `O=C(Cn1cc(Nc2nc3c(N4CC5CCC(C4)N5C(=O)N4CC(C(F)(F)F)C4)cccn3n2)cn1)N1CCN(C2COC2)CC1` [Example 194, 1-[4-(oxetan-3-yl)piperazin-1-yl]-2-[4-[[8-[8-[3-(trifluoromethyl)azetidine-1-carbonyl]-3,8-diazabicyclo[3.2.1]octan-3-yl]-[1,2,4]triazolo[1,5-a]pyridin-2-yl]amino]pyrazol-1-yl]ethanone], the values for the Ki in assay [1] and in assay [2] were 0.4 nM and 0.9 nM, respectively.

As for `CN1CCN(C(=O)Cn2cc(Nc3nc4c(N5C[C@H]6CC[C@@H](C5)[C@H]6OCc5cccc(CO)c5)cccn4n3)cn2)CC1` [Example 195, 1-(4-methylpiperazin-1-yl)-2-[4-[[8-[rac-(1S,5R)-8-[[3-(hydroxymethyl)phenyl]methoxy]-3-azabicyclo[3.2.1]octan-3-yl]-[1,2,4]triazolo[1,5-a]pyridin-2-yl]amino]pyrazol-1-yl]ethanone], the Ki was 0.7 nM in assay [1] and 0.4 nM in assay [2].

Take `CN1CCN(C(=O)Cn2cc(Nc3nc4c(N5CC6CCC(C5)N6C(=O)c5cnc(CC(F)(F)F)s5)cccn4n3)cn2)CC1` [Example 196]: the results for the Ki in assay [1] and in assay [2] were 1.1 nM and 0.6 nM, respectively.

In the case of `CSCCN1CCN(C(=O)Cn2cc(Nc3nc4c(N5CC6CCC(C5)N6C(=O)C5CC(C(F)(F)F)C5)cccn4n3)cn2)CC1` (stereo not shown) [Example 197, 1-[4-(2-methylsulfanylethyl)-piperazin-1-yl]-2-[4-[[8-[8-[3-(trifluoromethyl)-cyclobutanecarbonyl]-3,8-diazabicyclo[3.2.1]octan-3-yl]-[1,2,4]triazolo[1,5-a]pyridin-2-yl]amino]pyrazol-1-yl]ethanone], the Ki in assay [1] and in assay [2] was 0.3 nM each time.

On to `CSCCN1CCN(C(=O)Cn2cc(Nc3nc4c(N5CC6CCC(C5)N6C(=O)C5CC(C(F)(F)F)C5)cccn4n3)cn2)CC1` (stereo not shown) [Example 198, 1-[4-(2-methylsulfanylethyl)-piperazin-1-yl]-2-[4-[[8-[8-[3-(trifluoromethyl)-cyclobutanecarbonyl]-3,8-diazabicyclo[3.2.1]octan-3-yl]-[1,2,4]triazolo[1,5-a]pyridin-2-yl]amino]pyrazol-1-yl]ethanone], for which the Ki stood at 2.1 nM in assay [1] and 0.8 nM in assay [2].

For `CN1CCN(C(=O)Cn2cc(Nc3nc4c(N5CC6CCC(C5)N6C(=O)c5cccc(C#N)c5)cccn4n3)cn2)CC1` [Example 199, 3-[3-[2-[[1-[2-(4-methylpiperazin-1-yl)-2-oxo-ethyl]pyrazol-4-yl]amino]-[1,2,4]triazolo[1,5-a]pyridin-8-yl]-3,8-diazabicyclo[3.2.1]octane-8-carbonyl]benzonitrile], the Ki was found to be 2.1 nM in assay [1] and 1.3 nM in assay [2].

The record behind these values is patent publication US10189836B2, “Therapeutic compounds, compositions and methods of use thereof” (Genentech, Inc., priority 2015, dated 2019).
